US20080057529A1, “Method for Identifying Histone Deacetylase Inhibitors” (priority 2003, published 2008)

Columns and labels:
Assay type in all cases: cell-based, human
[1] = tested on: p21 minimal promoter; assay: Fluorometric β-lactamase activity assay in stable HeLa clone 1.17 (p21m-BLA)
Protocol: All clones were screened for the presence of stably and functional integrated copies of the p21m-BLA reporter gene transcription cassette by performing a fluorometric β-lactamase activity assay after treatment with the HDAC inhibitor Apicidin at a concentration of 1 μM (saturating dose representing 100% of Bla gene activation, i.e., 100% of HDAC inhibition). A 100 μL aliquot of cells for each stable transformant in complete DMEM was plated into a well of a 96 well plate at about 36,000 cells per well for treatment with 1 μM Apicidin (saturating dose) and a 100 μL aliquot of cells was plated into a well of a 96 well plate at 24,000 cells per well for treatment with DMSO (vehicle control). […] After 4 hours, 25 μL of complete DMEM containing Apicidin at 5× final concentration or DMSO (5%) was added to each of the wells. The cells were then grown at 37° C., 5% CO2 for about 12 to 16 hours. Afterwards, the medium was removed and 100 μL of DMEM without serum and 25 μL of FRET labeled CCF2-AM Bla substrate diluted in the appropriate buffer according to the manufacturer recommendations were each added to the cells to give a final concentration of 1 μM CCF2-AM.

[2] = tested on: CMV promoter; assay: Transient transfection of HeLa cells with CMV-BLA (pCMV-BLA) reporter plasmid, Bla staining (blue cells)
Protocol: (§1) The p21m-BLA reporter plasmid was tested in transient transfection experiments of HeLa cells to evaluate the responsiveness of the minimal p21 promoter and the Bla reporter system to known HDAC inhibitors. In the first two transfection experiments, HeLa cells were transfected with 1 or 2 μg of Bla reporter plasmid containing either p21 minimal promoter (p21m-BLA) or CMV promoter (CMV-BLA) and 0.1 μg of pCMV-Luc or pRSV-Luc control plasmids. Different DNA-FUGENE transfection reagent ratios were tested (FUGENE is available from Roche Applied Science, Indianapolis, Ind.). […] Data are summarized below in Tables 1 and 2.
(§2) The percentage of β-lactamase-positive cells increased with time independent of the presence of HDAC inhibitors and was constantly higher with p21m-BLA than with pCMV-BLA.
(§3) In light of the above, the lack of apparent Bla activation in the above transfection experiments might have been due to the high sensitivity of the method. Therefore, transient transfections in which an accurate titration of the reporter plasmid DNA were performed. The titration of the reporter plasmid included using amounts lower than was used above. […] The transient transfections were repeated and the result confirmed (Table 7).

[3] = tested on: HDAC activity (acetylated histone H3); assay: Acetylation of core histones (inhibition of HDAC activity) in HeLa cells, acetylated histone H3 immunoblot; conditions: HeLa cells, 13 hour treatment, immunoblot densitometry; read-out: AcH3 EC50
Protocol: (§4) Induction of endogenous p21 and acetylation of core histones (inhibition of HDAC activity) was as follows. Dose-response experiments were performed in HeLa cells with different classes of known HDAC inhibitors. […] An α-tubulin-specific antibody (Sigma, St. Louis, Mo.; catalog number: T9026) was used as an internal standard. Quantitative data were obtained by densitometric analysis of X-ray films and were normalized for the internal standard values.

[4] = tested on: p21 minimal promoter; assay: Transient transfection of HeLa cells with p21m-BLA reporter plasmid, Bla staining (blue cells)
Protocol: as §1, §2, §3

[5] = tested on: p21 minimal promoter; assay: Transient transfection of HeLa cells with p21m-SEAP reporter plasmid, SEAP activity; conditions: Apicidin 1 μM, TSA 300 nM; for SEAP (10 min) / SEAP norm-bckg/RLU norm: Table 5
Protocol: To determine whether the p21 minimal promoter was responsive to HDAC inhibitors, a reporter plasmid containing the secreted alkaline phosphatase gene (SEAP) operably linked to the p21 minimal promoter (−182 through +25), pcDNA3-21m-SEAP, was tested in transient transfection experiments of HeLa cells. […] All data summarized in Tables 4 through 7 were obtained by normalizing the total amount of transfected DNA to 2.1 μg using a promoterless plasmid.

[6] = tested on: endogenous p21; assay: Induction of endogenous p21 in HeLa cells, immunoblot; conditions: 13 hour treatment, immunoblot densitometry, read-out: Endogenous p2 EC50
Protocol: as §4

[7] = tested on: HeLa cells; assay: Cell death in transiently transfected HeLa cells
Protocol: as §1, §2

## CC(/C=C/C(=O)NO)=C\[C@@H](C)C(=O)c1ccc(N(C)C)cc1 [TSA, Trichostatin A]
[1]; clone 1.17, 600 nM for 13 hr, then 7 days in culture, DMSO-treated samples
  reversion of Bla induction after FACS sorting: Complete reversion
[1]; clone 1.17, 300 or 600 nM for 13 hours, 48 hours after removal
  reversibility of induction of BlaM transcription: complete shut down of β-lactamase activity
[1]; clone 1.17, about 13 hours treatment, means of 3 to 4 independent experiments, read-out: p21m-Bla EC50
  EC50: 90 nM
[2]; Table 1, 400 nM, 12 hours induction, 1 μg CMV-BLA + 3 μL F
  % Blue cells: 5%
[2]; Table 1, 400 nM, 12 hours induction, 2 μg CMV-BLA + 6 μL F
  % Blue cells: 15-20%
[2]; Table 2, 400 nM, 12 hours induction, 1 μg CMV-BLA + 3 μL F
  % Blue cells: 5%
[2]; Table 2, 400 nM, 12 hours induction, 2 μg CMV-BLA + 6 μL F
  % Blue cells: 5%
[2]; Table 2, 400 nM, 12 hours, 1 μg CMV-BLA + 3 μL F + CMV-luc
  % Blue cells: 5%
[2]; Table 2, 400 nM, 12 hours, 1 μg CMV-BLA + 3 μL F + RSV-luc
  % Blue cells: 7%
[2]; Table 2, 400 nM, 12 hours, 2 μg CMV-BLA + 6 μL F + CMV-luc
  % Blue cells: 7%
[2]; Table 2, 400 nM, 12 hours, 2 μg CMV-BLA + 6 μL F + RSV-luc
  % Blue cells: 7%
[2]; Table 3, 2 μg pCMV-BLA + 0.1 μg pCMV-Luc, 12 hr treatment, TSA 300 nM, Apicidin 1 μM
  % Blue cells: 4-5%
[2]; Table 3, 2 μg pCMV-BLA + 0.1 μg pCMV-Luc, 24 hr treatment, TSA 300 nM, Apicidin 1 μM
  % Blue cells: 15%
[3]
  EC50: 130 nM
[4]; Table 1, 400 nM, 12 hours induction, 1 μg p21m-BLA + 3 μL F
  % Blue cells: 1%
[4]; Table 1, 400 nM, 12 hours induction, 1 μg p21m-BLA + 5 μL F
  % Blue cells: <1%
[4]; Table 1, 400 nM, 12 hours induction, 2 μg p21m-BLA + 6 μL F
  % Blue cells: 1%
[4]; Table 1, 400 nM, 12 hours induction, 2 μg p21m-BLA + 10 μL F
  % Blue cells: <1%
[4]; Table 2, 400 nM, 12 hours induction, 1 μg p21m-BLA + 3 μL F
  % Blue cells: 5%
[4]; Table 2, 400 nM, 12 hours induction, 2 μg p21m-BLA + 6 μL F
  % Blue cells: 5%
[4]; Table 2, 400 nM, 12 hours, 1 μg p21m-BLA + 3 μL F + CMV-luc
  % Blue cells: 4%
[4]; Table 2, 400 nM, 12 hours, 1 μg p21m-BLA + 3 μL F + RSV-luc
  % Blue cells: 5%
[4]; Table 2, 400 nM, 12 hours, 2 μg p21BLA + 6 μL F + CMV-luc
  % Blue cells: 4%
[4]; Table 2, 400 nM, 12 hours, 2 μg p21m-BLA + 6 μL F + RSV-luc
  % Blue cells: 4%
[4]; Table 3, 2 μg p21m-BLA + 0.1 μg pCMV-Luc, 6 hr treatment, TSA 300 nM, Apicidin 1 μM
  % Blue cells: 2-3%
[4]; Table 3, 2 μg p21m-BLA + 0.1 μg pCMV-Luc, 12 hr treatment, TSA 300 nM, Apicidin 1 μM
  % Blue cells: 10%
[4]; Table 3, 2 μg p21m-BLA + 0.1 μg pCMV-Luc, 24 hr treatment, TSA 300 nM, Apicidin 1 μM
  % Blue cells: 10%
[5]; p21m-SEAP promoter titration in HeLa
  induction of SEAP (maximum): up to 26 fold
[5]; P21m-SEAP 0 μg DNA (total DNA 2.1 μg)
  SEAP (10 min): 2313
[5]; P21m-SEAP 0.1 μg DNA
  SEAP norm-bckg/RLU norm: 6,558.72
[5]; P21m-SEAP 0.1 μg DNA (total DNA 2.1 μg)
  SEAP (10 min): 4405
[5]; P21m-SEAP 0.2 μg DNA
  SEAP norm-bckg/RLU norm: 11,855.92
[5]; P21m-SEAP 0.2 μg DNA (total DNA 2.1 μg)
  SEAP (10 min): 9328
[5]; P21m-SEAP 0.5 μg DNA
  SEAP norm-bckg/RLU norm: 25,471.82
[5]; P21m-SEAP 0.5 μg DNA (total DNA 2.1 μg)
  SEAP (10 min): 15743
[5]; P21m-SEAP 1 μg DNA
  SEAP norm-bckg/RLU norm: 108,713.07
[5]; P21m-SEAP 1 μg DNA (total DNA 2.1 μg)
  SEAP (10 min): 50626
[5]; P21m-SEAP 2 μg DNA
  SEAP norm-bckg/RLU norm: 201,678.57
[5]; P21m-SEAP 2 μg DNA (total DNA 2.1 μg)
  SEAP (10 min): 109998
[6]
  EC50: 190 nM
[7]; 400 nM, 12 hours induction, transfected HeLa cells, both experiments
  cells dead after treatment: approximately 50%
[7]; 12 and 24 hours, TSA 300 nM vs Apicidin 1 μM
  cell death at longer incubation times, compared with Apicidin: higher fraction of cells died
[7]; after 6 hours, TSA 300 nM, Apicidin 1 μM, transfected HeLa cells
  Cell-death: not visible
